# Data: PubChem BioAssay AID743395 (Broad Institute, 2014)
# System: HepG2 viability, CellTiter-Glo ATP luminescence, 72 h
# Assay: HepG2 cell cytotoxicity, dose response, cytotoxicity control, CellTiter-Glo luminescence, cherry-pick, set 2 (AID 743395)
row,Structure (SMILES),AC35 [µM]
1,O=C(c1cccc(F)c1)N1CC(=O)N2[C@@H](CO)[C@@H](c3ccc(C#Cc4ccc(F)cc4)cc3)[C@@H]2C1,17.9
2,CCCCC(=NCCc1c(C)[nH]c2ccc(OC)cc12)C1=C(O)CC(c2ccccc2)CC1=O (stereo not drawn),8.11
3,Cc1ccc(C2(C)NC(=O)N(CC(=O)Nc3nc(-c4ccccn4)cs3)C2=O)cc1 (stereo not drawn),4.46
4,O=C(Nc1cccc(C2=NCCN2)c1)Nc1cccc(C2=NCCN2)c1,5.69
5,O=C1C=C(NCCc2cc(Br)c(O)c(Br)c2)C(=O)c2ncccc21,6.95
6,COc1cc(-c2nccc3cc4c(cc23)OCO4)cc(OC)c1OC,5.6
7,Nc1c2ccccc2nc2ccccc12,2.63
8,CC(=O)Oc1ccc(N2C(=O)c3cccc4c([N+](=O)[O-])ccc(c34)C2=O)cc1,16.7
9,CCN1CCN(c2cc(C)c3cc(NC(=O)c4ccc(OC)c(OC)c4)ccc3n2)CC1,12.4
10,COc1ccc(-c2ccc3oc(-c4ccc(OC)cc4)c(C#CCO)c3c2)cc1,3.2
11,COc1cc(C(=O)Nc2ccc3c(c2)CCN3C(C)=O)cc(OC)c1OC,3.94
12,N#Cc1ccc(-c2cccs2)nc1SCc1cccnc1,0.671
13,Cc1cc(C)c2nc(Cl)c(CN(Cc3ccco3)C(=O)Nc3ccccc3C)cc2c1,5.84
14,COc1ccc(/C=N/NC(=S)Nc2ccccc2[N+](=O)[O-])cc1O,14.4
15,Nc1ccc2c3c(cccc13)C(=O)N(c1ccccc1)C2=O,10.7
16,COc1cc2c(cc1OC)C(C)N(C(=O)Nc1cc(C)cc(C)c1)CC2 (stereo not drawn),7.81
17,Cc1nc(N)[nH]c(=O)c1CCCNS(=O)(=O)c1ccc([N+](=O)[O-])cc1,17.1
18,CCN(CC)CCn1c2ccccc2c2nc3ccccc3nc21,19.9
19,CCSC(=O)N1c2ccc(OC)cc2C=CC1C#N (stereo not drawn),7.54
20,COc1cccc(-c2cnc3c(NC(C)=O)cc(-c4cc(F)ccc4OC)cn23)c1,12.5
21,NCC(=O)NNC(=O)OCC1c2ccccc2-c2ccccc21,12.7
22,COCC(=O)N1CC2(CCN(Cc3ccccc3)CC2)c2c([nH]c3cc(OC)ccc23)[C@H]1CO,5.27
23,COc1cccc(N2CCN(C(=O)c3ccc(CS(=O)c4ccc(C)cc4)o3)CC2)c1 (stereo not drawn),0.833
24,CC(C)CC#Cc1ccc([C@@H]2[C@@H](CO)N3CCCCN(C(=O)NC4CCCC4)C[C@H]23)cc1,9.9
25,COc1ccc2c3c(n(C)c2c1)[C@H](CO)N(C(=O)C1CC1)CC31CCN(Cc2cccc(F)c2)CC1,4.68
26,COc1ccc(Nc2nc(-c3sc(C)nc3C)cs2)c(OC)c1,10
27,C[C@H]1CN([C@@H](C)CO)S(=O)(=O)c2ccc(C#Cc3ccc(F)cc3)cc2O[C@H]1CN(C)C(=O)NC1CCCCC1,11.9

row,Structure (SMILES),AC35 [µM]
1,CC(C)Cc1ccc(-c2cc3nc(NCc4cccc(Cl)c4)ccn3n2)cc1,11.1
2,Clc1ccc2c(c1)-c1ccccc1C1=NCCN12,3.06
3,CCC(=O)NC(c1ccc(C)cc1)c1ccc2cccnc2c1O (stereo not drawn),1.42
4,Cc1ccccc1-c1nc(CS(=O)(=O)CC(=O)NCc2ccccc2)c(C)o1,18.4
5,Nc1ccn([C@@H]2O[C@H](CO)[C@@H](O)[C@@H]2O)c(=O)n1,7.89
6,CCCCNc1c(-c2ccc(SC(C)CC)c(OC)c2)nc2ccc(C)cn12 (stereo not drawn),13.6
7,O=C(N/N=C\c1c(O)ccc2ccccc12)c1cncc(Br)c1,1.18
8,Cc1cc2c(cc1S(=O)(=O)Nc1ccc(F)cc1)n(C)c(=O)c(=O)n2C,18.2
9,COc1ccccc1Nc1nc(-c2sc(NC(=O)C(C)(C)C)nc2C)cs1,15.7
10,O=C(N/N=C/c1cccs1)c1cc(C2CC2)nc2ccccc12,21.1
11,O=C(Nc1cccc(F)c1)N1CCCCN2[C@@H](CO)[C@H](c3ccc(C#CC4CC4)cc3)[C@@H]2C1,10.1
12,O=C1c2cccc3c(O)ccc(c23)C(=O)N1Cc1ccco1,15.6
13,COc1cc(/C=C2/SC(=Nc3ccc(O)cc3)NC2=O)cc(OC)c1O,14.7
14,O=[N+]([O-])c1ccc(N=Nc2c(Cl)cc(O)cc2Cl)cc1,4.24
15,Nc1ccc2ccc3cccc[n+]3c2c1,21.5
16,COc1ccc([C@H]2C[C@H](O)[C@@H](n3cc(-c4ccc(F)cc4)nn3)CN2Cc2cccs2)cc1,6.12
17,CC(=NNC(=O)c1ccncc1)c1ccc2ccccc2c1O,2.59
18,COc1ccc([C@H]2CC(=O)C=C(c3c(OC)cccc3OC)C2)cc1,3.37
19,Cc1ccc2c(c1)CCCN2C(=O)CCc1nc2ccccc2c(=O)[nH]1,7.93
20,O=C1c2ccccc2C(=O)c2c1cccc2N(CCO)CCO,16.7
21,O=C(CCc1ccccc1)NCC(c1ccco1)N1CCc2ccccc21 (stereo not drawn),16.7
22,CC1=NN(c2ccccc2)C(=O)C1N=Nc1cccc(O)c1 (stereo not drawn),19
23,Cc1nn2cc(-c3cccc(Cl)c3)cnc2c1Br,11.1
24,CCN(CC)CCCNc1nc2ccccc2c2[nH]c3ccc(OC)cc3c12,2.39
25,CN(CC1CCCO1)S(=O)(=O)c1ccc(C(=O)Nc2nnc(-c3ccccc3)o2)cc1 (stereo not drawn),9.86
26,CC1(Cc2ccc(F)cc2)C(=O)Nc2c(Cl)ccc(Cl)c21 (stereo not drawn),12
